Data set [1] has as its target T1, Cannabinoid receptor 1 (Homo sapiens, UniProt P21554). Briefly: Displacement of [3H]-CP55,940 from human CB1 receptor after 60 mins by microscintillation counting analysis.
The target in data set [2] is T2, Cannabinoid receptor 2 (Homo sapiens, UniProt P34972). Briefly: Displacement of [3H]-CP55,940 from human CB2 receptor after 60 mins by microscintillation counting analysis. (In a radioligand displacement assay an active substance lowers the binding of a labelled ligand.)
The species entered for another data set is Homo sapiens. The experiment in a line: Selectivity ratio of EC50 for human CB1 receptor to EC50 for human CB2 receptor.
The target of data set [3] is T1, Cannabinoid receptor 1. Briefly: Agonist activity at human CB1 receptor after 4 hrs by luciferase reporter gene assay. The data set is classed as functional. On the technique in general: In a reporter assay the amount or activity of a reporter protein is the signal.
The target in data set [4] is T1, Cannabinoid receptor 1. The experiment in a line: Agonist activity at human CB1 receptor after 4 hrs by luciferase reporter gene assay relative to control. Type of data set: functional.
Data set [5] concerns the target T2, Cannabinoid receptor 2. The experiment in a line: Agonist activity at human CB2 receptor after 4 hrs by luciferase reporter gene assay relative to control. The data set is classed as functional.
Data set [6] addresses T2, Cannabinoid receptor 2. The experiment in a line: Agonist activity at human CB2 receptor after 4 hrs by luciferase reporter gene assay. The data set is classed as functional.
The subject of another data set is Mus musculus. Briefly: Analgesic activity in NMRI mouse assessed as inhibition of acetic acid-induced writhing at 30 mg/kg, po measured for 30 mins relative to vehicle-treated control. The settings on record: for inhibition in vivo at 30 mg/kg: 0.5 h. The data set is classed as functional. In general terms: An intraperitoneal irritant provokes the stretching counted in writhing tests.

Data set [7] addresses Cannabinoid receptor 1 (Rattus norvegicus, UniProt P20272). The experiment in a line: Displacement of [3H]-CP55,940 from rat CB1 receptor after 60 mins by microscintillation counting analysis.
Data set [8] can be described thus: Half life in mouse liver microsomes. Type of data set: ADME, Microsome.
In data set [9] the target is T3, Cannabinoid receptor 2 (Rattus norvegicus, UniProt Q9QZN9).
T3 sequence (Q9QZN9 whole entry): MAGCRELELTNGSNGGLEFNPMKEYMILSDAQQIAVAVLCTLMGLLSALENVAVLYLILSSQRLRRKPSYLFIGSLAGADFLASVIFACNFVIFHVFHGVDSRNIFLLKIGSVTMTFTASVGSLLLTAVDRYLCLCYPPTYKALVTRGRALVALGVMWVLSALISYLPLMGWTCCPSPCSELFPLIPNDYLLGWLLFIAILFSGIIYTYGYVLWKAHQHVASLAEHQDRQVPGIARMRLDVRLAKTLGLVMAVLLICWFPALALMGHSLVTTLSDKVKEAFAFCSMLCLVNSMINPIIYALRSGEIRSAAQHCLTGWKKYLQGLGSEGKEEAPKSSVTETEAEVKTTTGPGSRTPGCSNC
Briefly: Displacement of [3H]-CP55,940 from rat CB2 receptor after 60 mins by microscintillation counting analysis.

Data set [10] can be described thus: Half life in rat liver microsomes. The data set is classed as ADME, Microsome.

The source made the active and inactive calls. The calls are words filed in the database; no cut-off is given here.

Chain of Cannabinoid receptor 1 (Rattus norvegicus, UniProt P20272) (P20272 whole entry): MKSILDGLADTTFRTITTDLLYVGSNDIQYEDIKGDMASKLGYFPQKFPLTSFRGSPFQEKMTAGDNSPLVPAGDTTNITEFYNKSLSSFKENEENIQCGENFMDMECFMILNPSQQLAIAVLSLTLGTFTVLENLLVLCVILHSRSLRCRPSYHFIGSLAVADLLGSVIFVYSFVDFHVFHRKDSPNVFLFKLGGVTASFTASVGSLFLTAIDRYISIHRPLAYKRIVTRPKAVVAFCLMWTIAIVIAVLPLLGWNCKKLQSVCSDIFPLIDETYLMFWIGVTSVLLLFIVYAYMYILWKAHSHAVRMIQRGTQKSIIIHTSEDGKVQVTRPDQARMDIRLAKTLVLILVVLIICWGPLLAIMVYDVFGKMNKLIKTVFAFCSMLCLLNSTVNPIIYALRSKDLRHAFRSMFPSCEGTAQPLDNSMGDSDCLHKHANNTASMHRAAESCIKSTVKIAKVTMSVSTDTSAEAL
T1 sequence (P21554 whole entry): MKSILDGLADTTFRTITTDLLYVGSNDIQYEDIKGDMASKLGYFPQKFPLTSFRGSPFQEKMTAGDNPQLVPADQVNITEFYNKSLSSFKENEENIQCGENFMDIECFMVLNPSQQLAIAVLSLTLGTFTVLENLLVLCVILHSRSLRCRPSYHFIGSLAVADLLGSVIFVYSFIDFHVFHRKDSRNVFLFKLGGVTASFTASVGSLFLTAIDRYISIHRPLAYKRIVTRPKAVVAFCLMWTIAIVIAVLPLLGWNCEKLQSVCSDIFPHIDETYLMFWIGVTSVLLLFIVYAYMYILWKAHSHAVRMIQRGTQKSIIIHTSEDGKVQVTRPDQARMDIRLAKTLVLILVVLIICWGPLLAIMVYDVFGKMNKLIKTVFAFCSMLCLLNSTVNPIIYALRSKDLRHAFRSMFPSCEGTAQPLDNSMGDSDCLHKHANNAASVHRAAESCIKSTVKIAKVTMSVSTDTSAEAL
T2 sequence (P34972 whole entry): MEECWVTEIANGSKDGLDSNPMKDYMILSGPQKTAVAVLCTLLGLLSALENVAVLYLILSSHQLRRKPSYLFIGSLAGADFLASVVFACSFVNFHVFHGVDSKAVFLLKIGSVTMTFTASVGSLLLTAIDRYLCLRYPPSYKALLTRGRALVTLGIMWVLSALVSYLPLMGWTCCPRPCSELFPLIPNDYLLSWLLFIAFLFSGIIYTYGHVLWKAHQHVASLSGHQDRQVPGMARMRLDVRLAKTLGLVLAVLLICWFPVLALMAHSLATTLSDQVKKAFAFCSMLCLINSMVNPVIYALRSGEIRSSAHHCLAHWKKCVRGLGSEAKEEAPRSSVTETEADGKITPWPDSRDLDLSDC

Usually Ki stands for the dissociation constant of the complex between target and ligand, obtained from inhibition or displacement. Read a low Ki as tighter binding. As usually defined, the EC50 is the concentration that produces a half-maximal response. Lower therefore signals higher potency in that assay. The term half-life denotes the time in which the quantity being followed falls by half. `O=C(Nc1sc2c(c1C(=O)N1CCCCC1)CCOC2)c1ccccc1OC(F)(F)F`: the Ki at Cannabinoid receptor 1 [1] is 19400 nM; on Cannabinoid receptor 2 [2], 347 nM; on Cannabinoid receptor 1 [7], 22600 nM; on Cannabinoid receptor 2 [9], 2130 nM. In addition, in the data set listed under Homo sapiens, the Ratio EC50 was found to be 98. Moreover, the EC50 at Cannabinoid receptor 1 [3] was determined as 925 nM; at Cannabinoid receptor 2 [6], 9.5 nM. Besides, the Efficacy at Cannabinoid receptor 1 [4] was 85%; at Cannabinoid receptor 2 [5] it was 101%. For the same compound, the inhibition entry in the data set on Mus musculus is “inactive”. In addition, the half-life was 10 min in data set [8] and 3.52 min in data set [10].
Usually inhibition in vivo stands for the percentage by which the read-out fell short of the control. With `COC1CN(C(=O)c2c(NC(=O)c3ccccc3C(F)(F)F)sc3c2CCOC3)C1`, the Ki at Cannabinoid receptor 1 [1] was over 30000 nM; at Cannabinoid receptor 2 [2], 899 nM; at Cannabinoid receptor 1 [7] it was over 30000 nM; at Cannabinoid receptor 2 [9], 3110 nM. The Ratio EC50 in the data set filed under Homo sapiens came out at 387. Also, the EC50 on Cannabinoid receptor 1 [3] came to 5960 nM; on Cannabinoid receptor 2 [6] it was 15 nM. Besides, the Efficacy was determined as 53% at Cannabinoid receptor 1 [4] and 98% at Cannabinoid receptor 2 [5]. Also, the inhibition in vivo at 30 mg/kg in the data set with Mus musculus amounted to 15%. Moreover, the half-life turned out to be 37.3 min in data set [8] and 50.4 min in data set [10].
`O=C(Nc1sc2c(c1C(=O)N1CC(F)(F)C1)CCOC2)c1ccccc1OC(F)(F)F`: the inhibitory constant (Ki) is over 30000 nM on Cannabinoid receptor 1 [1], 240 nM on Cannabinoid receptor 2 [2], over 30000 nM at Cannabinoid receptor 1 [7] and 4620 nM on Cannabinoid receptor 2 [9]. For the same compound, the Ratio EC50 in the data set listed under Homo sapiens stood at 420. The EC50 came out at 1970 nM on Cannabinoid receptor 1 [3] and 4.7 nM at Cannabinoid receptor 2 [6]. Besides, the Efficacy at Cannabinoid receptor 1 [4] and on Cannabinoid receptor 2 [5] was 104% each time. Moreover, the inhibition result in the data set with Mus musculus is “inactive”. Also, the half-life in data set [8] is 25.5 min; in data set [10], 6.4 min.
In the case of `COCCNC(=O)c1c(NC(=O)c2c(F)cccc2C(F)(F)F)sc2c1CCOC2`, the Ki is over 30000 nM on Cannabinoid receptor 1 [1], 904 nM on Cannabinoid receptor 2 [2], over 30000 nM at Cannabinoid receptor 1 [7] and 1700 nM on Cannabinoid receptor 2 [9]. In addition, in the data set filed under Homo sapiens, the Ratio EC50 was 385. Also, the EC50 turned out to be 9360 nM on Cannabinoid receptor 1 [3] and 24 nM at Cannabinoid receptor 2 [6]. Also, the Efficacy was determined as 58% at Cannabinoid receptor 1 [4] and 96% on Cannabinoid receptor 2 [5]. In addition, the inhibition result in the data set on Mus musculus is “inactive”. Besides, the values for the half-life in data set [8] and in data set [10] were 21 min and 13.6 min, respectively.
`O=C(Nc1sc2c(c1C(=O)N1CCC(F)(F)CC1)CCOC2)c1ccccc1OC(F)(F)F`: the Ratio EC50 in the data set listed under Homo sapiens was 38. Also, the EC50 on Cannabinoid receptor 1 [3] turned out to be 125 nM; on Cannabinoid receptor 2 [6], 3.3 nM. Besides, the Efficacy on Cannabinoid receptor 1 [4] was found to be 79%; at Cannabinoid receptor 2 [5], 96%.
For the compound `O=C(Nc1sc2c(c1C(=O)N1CCOCC1)CCOC2)c1ccccc1Cl`, the Ratio EC50 in the data set listed under Homo sapiens came out at 14. In addition, the EC50 at Cannabinoid receptor 1 [3] was determined as 3270 nM; at Cannabinoid receptor 2 [6] it was 227 nM. Further, the Efficacy at Cannabinoid receptor 1 [4] stood at 85%; at Cannabinoid receptor 2 [5], 112%.
Turning to `O=C(Nc1sc2c(c1C(=O)NCC1CC1)CCOC2)c1c(F)cccc1C(F)(F)F`, in the data set filed under Homo sapiens, the Ratio EC50 stood at 74. Moreover, the EC50 at Cannabinoid receptor 1 [3] stood at 812 nM; at Cannabinoid receptor 2 [6] it was 11 nM. Besides, the Efficacy at Cannabinoid receptor 1 [4] was 90%; at Cannabinoid receptor 2 [5], 112%.
For the compound `COCCNC(=O)c1c(NC(=O)CC(C)(C)C)sc2c1CCCC2`, in the data set listed under Homo sapiens, the Ratio EC50 was 84. The EC50 at Cannabinoid receptor 1 [3] was found to be 1910 nM; at Cannabinoid receptor 2 [6] it was 23 nM. For the same compound, the Efficacy on Cannabinoid receptor 1 [4] is 90%; on Cannabinoid receptor 2 [5], 94%.
Consider `O=C(Nc1sc2c(c1C(=O)N1CCOCC1)CCOC2)c1ccccc1C(F)(F)F`, for which the Ratio EC50 in the data set filed under Homo sapiens worked out at 50. In addition, the EC50 was 1750 nM at Cannabinoid receptor 1 [3] and 35 nM on Cannabinoid receptor 2 [6]. Further, the Efficacy turned out to be 84% at Cannabinoid receptor 1 [4] and 102% at Cannabinoid receptor 2 [5].
In the case of `COCCNC(=O)c1c(NC(=O)C2CCCC2)sc2c1CCCC2`, in the data set filed under Homo sapiens, the Ratio EC50 came to 113. Moreover, the EC50 is 8030 nM at Cannabinoid receptor 1 [3] and 71 nM at Cannabinoid receptor 2 [6]. The Efficacy came to 61% on Cannabinoid receptor 1 [4] and 81% on Cannabinoid receptor 2 [5].
The matching figures for `CC(C)(C)CC(=O)Nc1sc2c(c1C(=O)N1CCC(F)(F)CC1)CCCC2`: 24, 113 nM, 4.7 nM, 86% and 82%.
The corresponding values for `O=C(Nc1sc2c(c1C(=O)NCC1CC1)CCOC2)c1ccccc1OC(F)(F)F` are 15, 519 nM, 35 nM, 88% and 94%.
The matching figures for `CC(C)(C)CC(=O)Nc1sc2c(c1C(=O)N1CC(F)(F)C1)CCCC2`: 63, 336 nM, 5.4 nM, 91% and 99%.
`O=C(Nc1sc2c(c1C(=O)N1CC(F)(F)C1)CCOC2)c1ccccc1C(F)(F)F`: the Ki on Cannabinoid receptor 1 [1] is 7190 nM; at Cannabinoid receptor 2 [2] it was 81.5 nM; on Cannabinoid receptor 1 [7], over 30000 nM; at Cannabinoid receptor 2 [9], 594 nM. Also, the Ratio EC50 in the data set listed under Homo sapiens is 118. Besides, the half-maximal effective concentration (EC50) on Cannabinoid receptor 1 [3] was 296 nM; at Cannabinoid receptor 2 [6], 2.5 nM. Besides, the Efficacy is 84% at Cannabinoid receptor 1 [4] and 106% on Cannabinoid receptor 2 [5]. In the data set on Mus musculus, the inhibition in vivo at 30 mg/kg came to 15%. The half-life in data set [8] worked out at 37.4 min; in data set [10], 8 min.
On to `CC1OCc2sc(NC(=O)CC(C)(C)C)c(C(=O)N3CCCCC3)c21` (configuration not stated), for which, in the data set listed under Homo sapiens, the Ratio EC50 was determined as 42. Also, the EC50 stood at 1660 nM on Cannabinoid receptor 1 [3] and 40 nM on Cannabinoid receptor 2 [6]. Moreover, the Efficacy at Cannabinoid receptor 1 [4] stood at 88%; at Cannabinoid receptor 2 [5] it was 91%.
The corresponding values for `O=C(Nc1sc2c(c1C(=O)N1CCOCC1)CCOC2)c1c(Cl)cccc1Cl` are 7, 4640 nM, 695 nM, 78% and 76%.
The matching figures for `COC1CN(C(=O)c2c(NC(=O)c3c(F)cccc3C(F)(F)F)sc3c2CCOC3)C1`: 275, 6610 nM, 24 nM, 55% and 100%.
Turning to `COCCNC(=O)c1c(NC(=O)c2ccccc2C(F)(F)F)sc2c1CCOC2`, the Ki is over 30000 nM on Cannabinoid receptor 1 [1], 999 nM on Cannabinoid receptor 2 [2], over 30000 nM at Cannabinoid receptor 1 [7] and 2540 nM at Cannabinoid receptor 2 [9]. Further, in the data set filed under Homo sapiens, the Ratio EC50 stood at 525. In addition, the half-maximal effective concentration (EC50) amounted to 8710 nM on Cannabinoid receptor 1 [3] and 17 nM on Cannabinoid receptor 2 [6]. For the same compound, the Efficacy is 45% on Cannabinoid receptor 1 [4] and 93% at Cannabinoid receptor 2 [5]. Besides, the inhibition result in the data set on Mus musculus is “inactive”. Besides, the half-life was determined as 19.8 min in [8] and 17.8 min in [10].
With `O=C(CN1CCCCC1)Nc1sc2c(c1C(=O)N1CCC(F)(F)CC1)CCCC2`, the Ratio EC50 in the data set listed under Homo sapiens worked out at 126. Further, the EC50 on Cannabinoid receptor 1 [3] is 3220 nM; on Cannabinoid receptor 2 [6] it was 26 nM. Moreover, the Efficacy came out at 100% on Cannabinoid receptor 1 [4] and 104% at Cannabinoid receptor 2 [5].
The corresponding values for `CC(C)c1ccccc1C(=O)Nc1sc2c(c1C(=O)N1CCOCC1)CCOC2` are 42, 1500 nM, 35 nM, 105% and 101%.

The values are drawn from ChEMBL document CHEMBL2203203, “Structure-activity relationships of 2-arylamido-5,7-dihydro-4H-thieno[2,3-c]pyran-3-carboxamide derivatives as cannabinoid receptor agonists and their analgesic action” (Bioorg Med Chem Lett, 2012).
